Data on one molecule can be found in US7662626B2, “Cells and methods for estimation of effects on neurological dysfunction” (Kabushiki Kaisha Toshiba, priority 2005, dated 2010).

Each structure is given as a SMILES string.

What all share (assay type): cell-based, mouse
Data set [1] has as its system tau protein and TH protein. Description: Marker protein expression (tau, TH) by western blotting in selected cell strains. The note with it: 10 nM, three weeks, with vs without; selected two cell strains (FIG. 4). As for the experimental part:
After the selected two cell strains were cultured in DF1:1 medium supplemented with 10 nM of 2,3,7,8-TCDD for three weeks, the amounts of expression of the tau protein and TH protein were confirmed by extracting the proteins and by conducting western blotting with a tau protein antibody and TH protein antibody. The amounts of expression of the tau protein and TH protein were increased in any of the selected two cell strains as compared with neurotoxicity responsive cells cultured without adding 2,3,7,8-TCDD (FIG. 4).

Data set [2] concerns Neuro2a transfected with aryl hydrocarbon receptor-expressing nucleic acid pcDNA4-rAhR. The data set can be described thus: Neurite outgrowth (cell morphology) of cell strains transfected with pcDNA4-rAhR. The note with it: 10 nM, DF1:1 medium, 1 to 3 weeks; two selected AhR-transfected Neuro2a strains (FIG. 2). The method, then: (3) Cells in which neurites outgrow this observed by adding ligand of the aryl hydrocarbon receptor, are selected from the cell strains obtained in (c). Cells into which the receptor-expressing nucleic acid is transfected are cultured in a conventional culture medium such as DF1:1 medium containing 10% fetal bovine serum with or without adding ligand of the aryl hydrocarbon receptor for 1 to 3 weeks. And morphological changes are compared between the two types of the cells described above. The number of the neurite from the cell, the length of the neurite, and the number of the cells in which the neurite is outgrown are compared when the morphology changes of the cell strain are used as indications. It is more preferable that comparison of increase of a proportion of a number of cells with neurite having a twofold length of a diameter of the each cells, to the total cells which are in contacted with a ligand of aryl hydrocarbon receptor. The cells in which the neurite is outgrown by adding ligand of the aryl hydrocarbon receptor are selected, by comparing the cells in which the receptor-expressing nucleic acid is transfected by adding the ligand of the aryl hydrocarbon receptor with the cells in which the receptor-expressing nucleic acid is transfected without adding the ligand of the aryl hydrocarbon receptor. […]

Data set [3] deals with TH gene, Cdc42 gene and tau gene. The data set can be described thus: Marker gene expression (TH, Cdc42, tau) by reverse transcription PCR in selected cell strains. The note with it: selected two cell strains cultured with vs without 2,3,7,8-TCDD (FIG. 3). The method, then: Total RNAs were extracted with an RNeasy kit after culturing the selected two cell strains in DF1:1 medium supplemented with 2,3,7,8-TCDD, and cDNA was synthesized by a reverse transcription reaction. Subsequently, using cDNA synthesized above as a template and ExTaq (manufactured by Takara Bio Inc.), expression of the TH gene was confirmed by 25 cycles of PCR comprising one cycle with denaturation of 94° C./30 second, annealing of 60° C./30 seconds and extension of 72° C./30 seconds. Also, expression of the Cdc42 gene and tau gene was confirmed by 25 cycles of PCR comprising one cycle with denaturation of 94° C./30 second, annealing of 58° C./30 seconds and extension of 72° C./30 seconds. A forward primer 5′-CCACggTgTACTggTTCACT (SEQ ID NO: 7) and a reverse primer 5′-ggCATAgTTCCTgAgCTTgT (SEQ ID NO: 8) were used as primers for the TH gene; a forward primer 5′-gATACTgCAgggCAAgAgg (SEQ ID NO: 9) and a reverse primer 5′-CAggCACCCACTTTTCTTTC (SEQ ID NO: 10) were used as primers for the Cdc42 gene; and a forward primer 5′-TCCggAgAACgAAgCggCTACAgC (SEQ ID NO: 11) and a reverse primer 5′-TgCTgAggTgCCgTggAgATgTgT (SEQ ID NO: 12) were used as primers for the tau gene. As a result, the amounts of expression of the TH gene, Cdc42 gene and tau gene were increased in any of the two selected cell strains cultured with 2,3,7,8-TCDD as compared with the cell strains cultured without 2,3,7,8-TCDD (FIG. 3).

In data set [4] the test system is aryl hydrocarbon receptor. The data set can be described thus: CYP1A1 gene expression by reverse transcription PCR in selected cell strains. The note with it: 30 nM, 24 hours, with vs without; both selected cell strains. The text has this: (2) Cells functionally expressed the aryl hydrocarbon receptor protein are selected from the cells obtained in (c). A gene known to be able to induce expression of the gene through activation of the aryl hydrocarbon receptor is used as a marker as an indication of the selection. Examples of the gene include genes for CYP1A1, UGT glycosyltransferase 1 family, polypeptide A6 (UGT1A6) or glutathione-S-transferase (GST). The selection procedure includes, for example, culturing the cells to be selected in a conventional culture medium such as DF1:1 medium containing 10% of fetal bovine serum for 1 to 5 days; culturing the cells in a conventional culture medium such as DF1:1 medium containing 10% of fetal bovine serum for 1 week by adding a ligand of aryl hydrocarbon receptor; and extracting RNAs from the cells to detect the expression of the marker gene by a known RNA detection method such as northern hybridization and reverse transcription PCR. Alternatively, the protein translated from the marker gene is detected by a known detection method such as western blotting. The cells confirmed to induce the expression of the marker gene by this confirmation are selected.
After cultivating these cell strains in DF1:1 suppremented with or without 30 nM of 2,3,7,8-TCDD for 24 hours, total RNAs were extracted from the cells. An RNeasy kit was used for extraction of total RNA. […]

For the next data set, the system named is Neuro2a. Description: CYP1A1 gene expression by reverse transcription PCR in parent Neuro2a. The note with it: 30 nM, 24 hours; parent Neuro2a (no AhR gene detected). The method, then:
After cultivating these cell strains in DF1:1 suppremented with or without 30 nM of 2,3,7,8-TCDD for 24 hours, total RNAs were extracted from the cells. An RNeasy kit was used for extraction of total RNA. The extracted RNA was reverse-transcripted using an oligo(dT) primer. Subsequently, expression of CYP1A1 gene was confirmed by 25 cycles of PCR comprising 1 cycle with denaturation of 94° C./30 second, annealing of 55° C./30 seconds and extension of 72° C./30 seconds. CYP1A1 gene is one of genes, of which expression thereof is induced by binding of the aryl hydrocarbon receptor activated by binding of a ligand to XRE (xenobiotic responsive element) on DNAs. A forward primer 5′-CCCACAgCACCACAAgAgATA (SEQ ID NO: 5) and a reverse primer 5′-AAgTAggAggCACAATgTC (SEQ ID NO: 6) were used as primers for PCR. As a result, expression of CYP1A1 gene was increased by adding 2,3,7,8-TCDD in both of two selected cell strains. While the same experiment was performed with respect to Neuro2a, no increase of the amount of expression of CYP1A1 gene was observed.

As for `Clc1cc2c(cc1Cl)Oc1cc(Cl)c(Cl)cc1O2` [2,3,7,8-TCDD, 2,3,7,8-tetrachlorodibenzo-p-dioxin], in data set [1], the “amount of expression of the TH protein” value was “increased” and the “amount of expression of the tau protein” value is reported as “increased”. For the same molecule, the “neurite outgrowth (morphology of the cell)” value in data set [2] is recorded as “particularly high proportion of neurite outgrowth”. Moreover, in data set [3], the “amount of expression of the Cdc42 gene” value was “increased”, the “amount of expression of the TH gene” value is recorded as “increased” and the “amount of expression of the tau gene” value was “increased”. The “expression of CYP1A1 gene” value in data set [4] is on record as “increased”. In addition, the “amount of expression of CYP1A1 gene” value in the data set with Neuro2a is “no increase”.
